Measured values reported in patent US11046716B2, “Beta-lactamase inhibitors” (priority 2015, dated 2021).
pIC50: −log10 of the molar value.

How the values were obtained:
SHV-5 = molecular target: T1, SHV-5 (Klebsiella pneumoniae, UniProt P0A3M1); experiment: β-lactamase enzyme inhibition assay, SHV-5 (cefotaxime substrate); type: biochemical
T1 construct: made in house; host or cells: E. coli BL21(DE3)
Method in brief: (§1)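 IC50 is the inhibitor level cutting initial substrate hydrolysis rate by 50% relative to no-inhibitor controls, after 15 min enzyme–inhibitor preincubation at 37 °C. KPC-2 read with imipenem at 300 nm, SHV-5 with cefotaxime at 260 nm; enzymes were untagged, E. coli-expressed, chromatographically purified.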

KPC-2 = molecular target: T2, KPC-2 (Klebsiella pneumoniae, UniProt Q9F663); experiment: β-lactamase enzyme inhibition assay, KPC-2 (imipenem substrate); type: biochemical; settings: Class A; imipenem substrate, 300 nm; read-out: KPC-2
T2 construct: made in house; host or cells: E. coli BL21(DE3)
Method in brief: as §1

VIM-2 = molecular target: T3, VIM-2 (Escherichia coli, UniProt Q5U7L7); experiment: β-lactamase enzyme inhibition assay, VIM-2 (nitrocefin substrate); type: biochemical; settings: Class B; nitrocefin substrate, 486 nm; read-out: VIM-2
T3 construct: made in house; host or cells: E. coli BL21(DE3)
Method in brief: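 Enzyme + inhibitor, 37 °C, 15 min; nitrocefin 100 μM final; A486 read for 10 min. % inhibition vs no-inhibitor wells per concentration; IC50 = concentration halving initial hydrolysis rate.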

AmpC = molecular target: T4, AmpC (Enterobacter cloacae, UniProt P05364); experiment: β-lactamase enzyme inhibition assay, p99 AmpC (nitrocefin substrate); type: biochemical
T4 construct: made in house; host or cells: E. coli BL21(DE3)
Method in brief: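 IC50 is the inhibitor level cutting initial substrate hydrolysis rate by 50% relative to no-inhibitor controls, after 15 min enzyme–inhibitor preincubation at 37 °C. enzymes were untagged, E. coli-expressed, chromatographically purified.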

OXA-48 = OXA-48 (UniProt Q6XEC0); experiment: β-lactamase enzyme inhibition assay, Class D oxacillinase; type: biochemical; settings: read-out: OXA-48
[1] = tested on: E. coli expressing the Class A Extended Spectrum Beta-Lactamase (ESBL) CTX-M-15; experiment: Broth microdilution MIC assay with ceftazidime, E. coli CTX-M-15; type: cell-based; settings: Fixed CAZ (ceftazidime) 4 μg/mL; E. coli ESBL4 CTX-M-15
Method in brief: (§2)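 CAMHB; cpd 2-fold serial dilution, 16–0.125 μg/mL final; β-lactam static 4 μg/ml; CLSI inoculation; 16–20 h, 37° C; MIC read by eye.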

[2] = tested on: E. cloacae expressing the Class C P99; experiment: Broth microdilution MIC assay with ceftazidime, E. cloacae P99; type: cell-based; settings: Fixed CAZ (ceftazidime) 4 μg/mL; E. cl. 144200 p99 AmpC
Method in brief: as §2

[3] = tested on: K. pneumoniae expressing the Class A carbapenemase KPC-2; experiment: Broth microdilution MIC assay with meropenem, K. pneumoniae KPC-2; type: cell-based; settings: Fixed Mero (meropenem) 4 μg/mL; K. p. 156319 KPC-3
Method in brief: as §2

[4] = tested on: P. aeruginosa expressing the Class B carbapenemase VIM-2; experiment: Broth microdilution MIC assay with meropenem, P. aeruginosa VIM-2; type: cell-based; settings: Fixed Mero (meropenem) 4 μg/mL; P. aerug. 2775 VIM-2
Method in brief: as §2

[5] = tested on: K. pneumoniae expressing the class A carbapenemase KPC-2 and the class B carbapenemase VIM-4; experiment: Broth microdilution MIC assay with meropenem, K. pneumoniae KPC-2 and VIM-4; type: cell-based; settings: Fixed Mero (meropenem) 4 μg/mL; K. p. A-1797 KPC-2 VIM-4
Method in brief: as §2

[6] = tested on: K. pneumoniae producing the Class D carbapenemase OXA-48; experiment: Broth microdilution MIC assay with meropenem, K. pneumoniae OXA-48; type: cell-based; settings: Fixed Mero (meropenem) 4 μg/mL; K. p. 11978 OXA-48
Method in brief: as §2

T4 sequence (P05364 21-381): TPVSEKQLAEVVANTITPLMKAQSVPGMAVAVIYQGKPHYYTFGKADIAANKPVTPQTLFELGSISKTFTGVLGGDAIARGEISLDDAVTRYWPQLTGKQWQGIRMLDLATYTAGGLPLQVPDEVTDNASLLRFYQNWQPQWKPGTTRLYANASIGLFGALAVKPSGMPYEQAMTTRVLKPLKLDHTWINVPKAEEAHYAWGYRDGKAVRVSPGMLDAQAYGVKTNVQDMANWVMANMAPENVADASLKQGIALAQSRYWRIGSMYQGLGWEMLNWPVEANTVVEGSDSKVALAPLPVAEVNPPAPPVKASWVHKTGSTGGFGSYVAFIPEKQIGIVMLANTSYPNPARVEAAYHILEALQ
T2 sequence (Q9F663 25-293, looked up): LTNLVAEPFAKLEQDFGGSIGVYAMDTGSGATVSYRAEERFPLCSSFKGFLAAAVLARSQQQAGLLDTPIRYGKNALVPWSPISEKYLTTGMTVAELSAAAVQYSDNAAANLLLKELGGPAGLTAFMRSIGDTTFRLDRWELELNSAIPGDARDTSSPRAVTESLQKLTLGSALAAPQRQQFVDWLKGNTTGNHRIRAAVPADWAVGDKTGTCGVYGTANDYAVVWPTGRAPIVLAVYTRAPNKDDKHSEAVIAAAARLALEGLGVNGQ
T1 sequence (P0A3M1 22-286): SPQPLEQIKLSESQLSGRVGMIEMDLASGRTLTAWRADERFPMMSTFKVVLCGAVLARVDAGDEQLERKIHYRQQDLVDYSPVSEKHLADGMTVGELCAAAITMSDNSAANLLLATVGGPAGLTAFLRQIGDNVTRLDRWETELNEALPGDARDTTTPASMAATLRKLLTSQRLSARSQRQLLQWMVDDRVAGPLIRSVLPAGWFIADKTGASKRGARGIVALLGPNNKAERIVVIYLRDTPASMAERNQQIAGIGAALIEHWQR

Structure (SMILES)	pIC50 (SHV-5)	pIC50 (KPC-2)	pIC50 (VIM-2)	pIC50 (AmpC)	pIC50 (OXA-48)	MIC (μg/mL) of Exemplary Compounds in presence of fixed β-lactams: E. coli ESBL4 CTX-M-15 [1]	MIC (μg/mL) of Exemplary Compounds in presence of fixed β-lactams: E. cl. 144200 p99 AmpC [2]	MIC (μg/mL) of Exemplary Compounds in presence of fixed β-lactams: K. p. 156319 KPC-3 [3]	MIC (μg/mL) of Exemplary Compounds in presence of fixed β-lactams: P. aerug. 2775 VIM-2 [4]	MIC (μg/mL) of Exemplary Compounds in presence of fixed β-lactams: K. p. A-1797 KPC-2 VIM-4 [5]	MIC (μg/mL) of Exemplary Compounds in presence of fixed β-lactams: K. p. 11978 OXA-48 [6]
Nc1ccc(S(=O)(=O)NCc2cn(CC(=O)N[C@H]3Cc4cccc(C(=O)O)c4OB3O)nn2)cc1 [Example 70, (R)-3-(2-(4-(((4-aminophenyl)sulfonamido)methyl)-1H-1,2,3-triazol-1-yl)acetamido)-2-hydroxy-3,4-dihydro-2H-benzo[e][1,2]oxaborinine-8-carboxylic acid]	> 7.00	> 7.00	5.00 to 6.00	> 7.00	6.00 to 7.00	C (C represents an MIC of <1 μg/mL)	C (C represents an MIC of <1 μg/mL)	B (B represents an MIC between 1 and 16 μg/mL inclusive)	B (B represents an MIC between 1 and 16 μg/mL inclusive)	B (B represents an MIC between 1 and 16 μg/mL inclusive)	B (B represents an MIC between 1 and 16 μg/mL inclusive)
NCCn1cnc(C(=O)N[C@H]2Cc3cccc(C(=O)O)c3OB2O)n1 [Example 71, (R)-3-(1-(2-aminoethyl)-1H-1,2,4-triazole-3-carboxamido)-2-hydroxy-3,4-dihydro-2H-benzo[e][1,2]oxaborinine-8-carboxylic acid]	6.00 to 7.00	6.00 to 7.00	6.00 to 7.00	> 7.00	4.00 to 5.00	C (C represents an MIC of <1 μg/mL)	C (C represents an MIC of <1 μg/mL)	C (C represents an MIC of <1 μg/mL)	C (C represents an MIC of <1 μg/mL)	B (B represents an MIC between 1 and 16 μg/mL inclusive)	A (A represents an MIC>16 μg/mL)
NCCn1cnc(C(=O)N[C@H]2Cc3cccc(C(=O)O)c3OB2O)c1 [Example 72, (R)-3-(1-(2-aminoethyl)-1H-imidazole-4-carboxamido)-2-hydroxy-3,4-dihydro-2H-benzo[e][1,2]oxaborinine-8-carboxylic acid]	> 7.00	> 7.00	6.00 to 7.00	> 7.00	6.00 to 7.00	C (C represents an MIC of <1 μg/mL)	C (C represents an MIC of <1 μg/mL)	C (C represents an MIC of <1 μg/mL)	B (B represents an MIC between 1 and 16 μg/mL inclusive)	B (B represents an MIC between 1 and 16 μg/mL inclusive)	B (B represents an MIC between 1 and 16 μg/mL inclusive)
NCCn1cncc1C(=O)N[C@H]1Cc2cccc(C(=O)O)c2OB1O [Example 73, (R)-3-(1-(2-aminoethyl)-1H-imidazole-5-carboxamido)-2-hydroxy-3,4-dihydro-2H-benzo[e][1,2]oxaborinine-8-carboxylic acid]	> 7.00	> 7.00	6.00 to 7.00	> 7.00	6.00 to 7.00	C (C represents an MIC of <1 μg/mL)	C (C represents an MIC of <1 μg/mL)	B (B represents an MIC between 1 and 16 μg/mL inclusive)	C (C represents an MIC of <1 μg/mL)	B (B represents an MIC between 1 and 16 μg/mL inclusive)	B (B represents an MIC between 1 and 16 μg/mL inclusive)
Nc1ccc(-c2cn(CC(=O)N[C@H]3Cc4cccc(C(=O)O)c4OB3O)nn2)cn1 [Example 74, (R)-3-(2-(4-(6-aminopyridin-3-yl)-1H-1,2,3-triazol-1-yl)acetamido)-2-hydroxy-3,4-dihydro-2H-benzo[e][1,2]oxaborinine-8-carboxylic acid]	> 7.00	> 7.00	5.00 to 6.00	> 7.00	6.00 to 7.00	C (C represents an MIC of <1 μg/mL)	C (C represents an MIC of <1 μg/mL)	B (B represents an MIC between 1 and 16 μg/mL inclusive)	B (B represents an MIC between 1 and 16 μg/mL inclusive)	A (A represents an MIC>16 μg/mL)	B (B represents an MIC between 1 and 16 μg/mL inclusive)
NCc1ccc(-c2cn(CC(=O)N[C@H]3Cc4cccc(C(=O)O)c4OB3O)nn2)cn1 [Example 75, (R)-3-(2-(4-(6-(aminomethyl)pyridin-3-yl)-1H-1,2,3-triazol-1-yl)acetamido)-2-hydroxy-3,4-dihydro-2H-benzo[e][1,2]oxaborinine-8-carboxylic acid]	> 7.00	6.00 to 7.00	6.00 to 7.00	> 7.00	6.00 to 7.00	C (C represents an MIC of <1 μg/mL)	C (C represents an MIC of <1 μg/mL)	C (C represents an MIC of <1 μg/mL)	B (B represents an MIC between 1 and 16 μg/mL inclusive)	B (B represents an MIC between 1 and 16 μg/mL inclusive)	B (B represents an MIC between 1 and 16 μg/mL inclusive)
NCC(=O)NCc1cn(CC(=O)N[C@H]2Cc3cccc(C(=O)O)c3OB2O)nn1 [Example 76, (R)-3-(2-(4-((2-aminoacetamido)methyl)-1H-1,2,3-triazol-1-yl)acetamido)-2-hydroxy-3,4-dihydro-2H-benzo[e][1,2]oxaborinine-8-carboxylic acid]	> 7.00	6.00 to 7.00	> 7.00	> 7.00	6.00 to 7.00	C (C represents an MIC of <1 μg/mL)	C (C represents an MIC of <1 μg/mL)	C (C represents an MIC of <1 μg/mL)	C (C represents an MIC of <1 μg/mL)	B (B represents an MIC between 1 and 16 μg/mL inclusive)	B (B represents an MIC between 1 and 16 μg/mL inclusive)
NOCC(=O)NCc1cn(CC(=O)N[C@H]2Cc3cccc(C(=O)O)c3OB2O)nn1 [Example 77, (R)-3-(2-(4-((2-(aminooxy)acetamido)methyl)-1H-1,2,3-triazol-1-yl)acetamido)-2-hydroxy-3,4-dihydro-2H-benzo[e][1,2]oxaborinine-8-carboxylic acid]	> 7.00	> 7.00	6.00 to 7.00	> 7.00	6.00 to 7.00	C (C represents an MIC of <1 μg/mL)	C (C represents an MIC of <1 μg/mL)	C (C represents an MIC of <1 μg/mL)	C (C represents an MIC of <1 μg/mL)	B (B represents an MIC between 1 and 16 μg/mL inclusive)	B (B represents an MIC between 1 and 16 μg/mL inclusive)
